{"source": "patent US20170240539A1", "about": "“Preparation and Use of Cyclic Sulfonamide Derivatives as PAR-1 Receptor Antagonists” (MERCK SHARP & DOHME CORP., priority 2014, published 2017)"}
{"target": "T1, PAR-1 receptor (Homo sapiens, UniProt P25116)", "T1 construct": "endogenous in cells; host or cells: HEK 293", "T1 sequence (P25116 22-425)": "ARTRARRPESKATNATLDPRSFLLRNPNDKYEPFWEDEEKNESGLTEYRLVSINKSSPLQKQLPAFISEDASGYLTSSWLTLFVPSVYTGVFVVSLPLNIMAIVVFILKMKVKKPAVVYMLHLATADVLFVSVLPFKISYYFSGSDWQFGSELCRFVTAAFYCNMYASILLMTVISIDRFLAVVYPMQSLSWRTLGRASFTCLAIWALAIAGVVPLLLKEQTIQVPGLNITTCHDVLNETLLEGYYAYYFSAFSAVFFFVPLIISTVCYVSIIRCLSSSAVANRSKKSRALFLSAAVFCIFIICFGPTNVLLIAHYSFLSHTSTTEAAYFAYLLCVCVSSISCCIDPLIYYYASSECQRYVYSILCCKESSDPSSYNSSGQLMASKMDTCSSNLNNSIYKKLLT", "test": "PAR-1 FLIPR Assay", "type": "cell-based", "conditions": "HEK 293 cells, FLIPR calcium-5 dye; inhibition of signal from PAR1 selective receptor-activating peptide at 80% activation concentration (1.4-2.0 uM); compound incubated 30 minutes at 25 degrees", "method": "The following assay was used to determine the ability of the inventive compounds to inhibit the PAR-1 receptor.\nHEK 293 Cells are grown in media containing DMEM, 10% FBS pen/strep/L-Glutamine and non-essential amino acids. The cells are plated in 384-well PDL coated plates at 12000 cells/well and incubated overnight at 37° C./5% CO2. Media is then removed from the cells, which are then incubated with buffer (Hank's containing HEPES and Chaps) containing FLIPR calcium-5 dye, made with buffer containing probenecid, for 60 minutes at 37° C. Varying concentrations of compound in a final concentration of 5% DMSO are then added to the cells and incubated at 25 degrees for 30 minutes. The plates are then added to a FLIPR Tetra cellular screening system and the device adds a concentration of a PAR1 selective receptor-activating peptide with the sequence Ala-parafluoroPhe-Arg-Cha-Cit-Tyr-NH2 (SEQ ID NO: 3) (prepared in water) at a concentration equal to the effective concentration that achieves 80% activation of signaling on the day of the experiment. The range is from 1.4-2.0 uM peptide. The FLIPR reads at an excitation wavelength of 480 nm and an emission wavelength of 535 nm, and performs 60 scans over a 1-2 min reading time. The data are analyzed by taking the peak signal over a portion of the range of the 60 scans and dividing this signal by the minimum signal for that same range. The data are expressed as percent inhibition of the maximum divided by the minimum signal achieved at 80% activation produced by the PAR1 activating peptide on the test day.", "units": {"IC50": "nM"}}
{"smiles": "CC(=O)N1[C@H](C)[C@H]2[C@@H](/C=C/c3ccc(-c4ccccc4C#N)cn3)[C@H](C)C(F)(F)C[C@H]2S1(=O)=O", "note": "[Example 4, 1-((3R,3aR,4S,5S,7aR)-6,6-difluoro-4-((E)-2-(5-(2-cyanophenyl)pyridin-2-yl)vinyl)-3,5-dimethyl-1,1-dioxidohexahydrobenzo[d]isothiazol-2(3H)-yl)ethanone]", "IC50": 483}
{"smiles": "Cc1nc(/C=C/[C@@H]2[C@H]3[C@@H](CC(F)(F)[C@H]2C)S(=O)(=O)N[C@@H]3C)ccc1-c1ccccc1C#N", "note": "[Example 6, (3R,3aR,4S,5S,7aR)-4-((E)-2-(5-(2-cyanophenyl)pyridin-2-yl)-6-methylvinyl)-6,6-difluoro-3,5-dimethyloctahydrobenzo[d]isothiazole-1,1-dioxide]", "IC50": 66.7}
{"smiles": "C[C@H]1NS(=O)(=O)[C@@H]2CC(F)(F)[C@@H](C)[C@H](/C=C/c3ccc(-c4cccnc4C#N)cn3)[C@@H]21", "note": "[Example 2, (3R,3aR,4S,5S,7aR)-6,6-difluoro-4-((E)-2-(2′-cyano-[3,3′-bipyridin]-6-yl)vinyl)-3,5-dimethyloctahydrobenzo[d]isothiazole 1,1-dioxide]", "IC50": 55.8}
{"smiles": "COc1ncccc1-c1ccc(/C=C/[C@@H]2[C@@H]3[C@@H](C)N(C(=O)OC(C)(C)C)S(=O)(=O)[C@@H]3CC(F)(F)[C@H]2C)nc1", "note": "[Example 13, (3R,3aR,4S,5S,7aR)-tert-butyl 6,6-difluoro-4-((E)-2-(2′-methoxy-[3,3′-bipyridin]-6-yl)vinyl)-3,5-dimethylhexahydrobenzo[d]isothiazole-2(3H)-carboxylate 1,1-dioxide]", "IC50": 278}
{"smiles": "CC(=O)N1[C@H](C)[C@H]2[C@@H](/C=C/c3ccc(-c4ccccc4C#N)cn3)[C@@H](C)C(F)(F)C[C@H]2S1(=O)=O", "note": "[Example 9, 1-((3R,3aR,4S,5R,7aR)-6,6-difluoro-4-((E)-2-(5-(2-cyanophenyl)pyridin-2-yl)vinyl)-3,5-dimethyl-1,1-dioxidohexahydrobenzo[d]isothiazol-2(3H)-yl)ethanone]", "IC50": 564}
{"smiles": "C[C@H]1NS(=O)(=O)[C@]2(CC(N)=O)CC(F)(F)[C@@H](C)[C@H](/C=C/c3ccc(-c4ccccc4C#N)cn3)[C@H]12", "note": "[Example 23, 2-((3R,3aR,4S,5S,7aR)-4-((E)-2-(5-(2-cyanophenyl)pyridin-2-yl)vinyl)-6,6-difluoro-3,5-dimethyl-1,1-dioxidooctahydrobenzo[d]isothiazol-7a-yl)acetamide]", "IC50": 3}
{"smiles": "C[C@H]1NS(=O)(=O)[C@]2(CC(N)=O)CC(F)(F)[C@@H](C)[C@H](/C=C/c3ccc(-c4cccnc4C#N)cn3)[C@H]12", "note": "[Example 24, 2-((3R,3aR,4S,5S,7aR)-6,6-difluoro-4-((E)-2-(2′-cyano-[3,3′-bipyridin]-6-yl)vinyl)-3,5-dimethyl-1,1-dioxidooctahydrobenzo[d]isothiazol-7a-yl)acetamide]", "IC50": 89}
{"smiles": "CC[C@@H]1CC[C@@H]2[C@H]([C@H]1/C=C/c1ccc(-c3ccccc3C#N)cn1)[C@@H](C)NS2(=O)=O", "note": "[Example 10, 2-(6-((E)-2-((3R,3aR,4R,5R,7aR)-5-ethyl-3-methyl-1,1-dioxidooctahydrobenzo[d]isothiazol-4-yl)vinyl)pyridin-3-yl)benzonitrile]", "IC50": 0.97}
{"smiles": "C[C@H]1NS(=O)(=O)[C@]2(C)CC(F)(F)[C@@H](C)[C@H](/C=C/c3ccc(-c4cccc(F)c4)cn3)[C@H]12", "note": "[Example 15, (3R,3aR,4S,5S,7aR)-6,6-difluoro-4-((E)-2-(5-(3-fluorophenyl)pyridin-2-yl)vinyl)-3,5,7a-trimethyloctahydrobenzo[d]isothiazole 1,1-dioxide]", "IC50": 55.1}
{"smiles": "C[C@H]1NS(=O)(=O)[C@@H]2CC(F)(F)[C@@H](C)[C@H](/C=C/c3ccc(-c4ccccc4C#N)cn3)[C@@H]21", "note": "[Example 3, (3R,3aR,4S,5S,7aR)-4-((E)-2-(5-(2-cyanophenyl)pyridin-2-yl)vinyl)-6,6-difluoro-3,5-dimethyloctahydrobenzo[d]isothiazole-1,1-dioxide]", "IC50": 11.9}
{"smiles": "COc1ncccc1-c1ccc(/C=C/[C@@H]2[C@@H]3[C@@H](C)NS(=O)(=O)[C@]3(C)CC(F)(F)[C@H]2C)nc1", "note": "[Example 12, (3R,3aR,4S,5S,7aR)-6,6-difluoro-4-((E)-2-(2′-methoxy-[3,3′-bipyridin]-6-yl)vinyl)-3,5,7a-trimethyloctahydrobenzo[d]isothiazole 1,1-dioxide]", "IC50": 4.2}
{"smiles": "COc1ncccc1-c1ccc(/C=C/[C@@H]2[C@H]3[C@@H](CC(F)(F)[C@H]2C)S(=O)(=O)N[C@@H]3C)nc1", "note": "[Example 1, (3R,3aR,4S,5S,7aR)-6,6-difluoro-4-((E)-2-(2′-methoxy-[3,3′-bipyridin]-6-yl)vinyl)-3,5-dimethyloctahydrobenzo[d]isothiazole 1,1-dioxide]", "IC50": 5.1}
{"smiles": "CC[C@@H]1CC[C@@H]2[C@H]([C@H]1/C=C/c1ccc(-c3ccccc3C#N)cn1)[C@@H](C)N(C(=O)OC(C)(C)C)S2(=O)=O", "note": "[Example 11, (3R,3aR,4R,5R,7aR)-tert-butyl 4-((E)-2-(5-(2-cyanophenyl)pyridin-2-yl)vinyl)-5-ethyl-3-methylhexahydrobenzo[d]isothiazole-2(3H)-carboxylate1,1-dioxide]", "IC50": 286}
{"smiles": "CCOC(=O)N1[C@H](C)[C@H]2[C@@H](/C=C/c3ccc(-c4ccccc4C#N)cn3)[C@H](CC)CC[C@H]2S1(=O)=O", "note": "[Example 28, (3R,3aR,4R,5R,7aR)-ethyl 4-((E)-2-(5-(2-cyanophenyl)pyridin-2-yl)vinyl)-5-ethyl-3-methylhexahydrobenzo[d]isothiazole-2(3H)-carboxylate 1,1-dioxide]", "IC50": 325}
{"smiles": "C[C@H]1NS(=O)(=O)[C@@H]2CC(F)(F)[C@@H](C)[C@H](/C=C/c3ccc(-c4cccc(F)c4)cn3)[C@@H]21", "note": "[Example 5, (3R,3aR,4S,5S,7aR)-6,6-difluoro-4-((E)-2-(5-(3-fluorophenyl)pyridin-2-yl)vinyl)-3,5-dimethyloctahydrobenzo[d]isothiazole 1,1-dioxide]", "IC50": 19}
{"smiles": "CC[C@@H]1CC[C@@H]2[C@H]([C@H]1/C=C/c1ccc(-c3ccccc3C#N)cn1)[C@@H](C)N(CCO)S2(=O)=O", "note": "[Example 29, 2-(6-((E)-2-((3R,3aR,4R,5R,7aR)-5-ethyl-2-(2-hydroxyethyl)-3-methyl-1,1-dioxidooctahydrobenzo[d]isothiazol-4-yl)vinyl)pyridin-3-yl)benzonitrile]", "IC50": 540}
{"smiles": "CCOC(=O)C[C@@]12CC(F)(F)[C@@H](C)[C@H](/C=C/c3ccc(-c4ccccc4C#N)cn3)[C@@H]1[C@@H](C)N(C(=O)OC(C)(C)C)S2(=O)=O", "note": "[Example 26]", "IC50": 54}
{"smiles": "Cc1nc(/C=C/[C@@H]2[C@H]3[C@@H](CC(F)(F)[C@H]2C)S(=O)(=O)N[C@@H]3C)ccc1-c1cccnc1C#N", "note": "[Example 7]", "IC50": 41}
{"smiles": "C[C@@H]1[C@H]2[C@@H](/C=C/c3ccc(-c4cccc(F)c4)cn3)[C@H](C)C(F)(F)C[C@H]2S(=O)(=O)N1C(=O)OC(C)(C)C", "note": "[Example 14, (3R,3aR,4S,5S,7aR)-tert-butyl 6,6-difluoro-4-((E)-2-(5-(3-fluorophenyl)pyridin-2-yl)vinyl)-3,5-dimethylhexahydrobenzo[d]isothiazole-2(3H)-carboxylate 1,1-dioxide]", "IC50": 383}
